In ChEMBL document CHEMBL5614451, “Structure-Activity Relationship of Oxacyclo- and Triazolo-Containing Respiratory Syncytial Virus Polymerase Inhibitors” (ACS Med Chem Lett, 2024):

What was measured:
[1] = Inhibition of RSV RdRp L/P measured after 120 mins by SPA; design: species or system Respiratory syncytial virus
[2] = tested on: Respiratory syncytial virus; test: Antiviral activity against RSV A2 expressing e-GFP infected in human HeLa cells incubated for 3 days by […]; type: functional, organism-based; details: 72 h
[3] = Cytotoxicity against human HeLa cells incubated for 3 days by ATPlite analysis; type: toxicity, cell-based; details: time 3 day
[4] = Intrinsic clearance in human liver microsome at 1 uM preincubated for 5 mins followed by NADPH addition measured upto 60 mins by LC-MS/MS analysis; type: ADME; details: liver microsomes, time 65 min, read-out: CLH
[5] = Intrinsic clearance in rat liver microsome at 1 uM preincubated for 5 mins followed by NADPH addition measured upto 60 mins by LC-MS/MS analysis; type: ADME; details: liver microsomes, time 65 min, read-out: CLH
[6] = Inhibition of RSV RdRp L/P; design: species or system Respiratory syncytial virus
[7] = tested on: Respiratory syncytial virus; test: Antiviral activity against RSV; type: functional, organism-based; details: human respiratory syncytial virus

COc1cc(-c2cn(CC3(c4cc(C(C)(C)O)c(F)c(-c5ccc(F)cc5)n4)CCO3)nn2)cc2cccnc12 (stereo unspecified)
IC50 [1]: 4.1 nM
EC50 [2]: 10 nM
CC50 at 72 h [3]: 23600 nM
microsomal CLint at 1 µM [4]: 54.2 µL/min/mg
microsomal CLint at 1 µM [5]: 42.7 µL/min/mg

COc1cc(C(=O)NCC2(c3cc(C(C)(C)O)c(F)c(-c4ccc(F)cc4)n3)CC(F)(F)CO2)cc2cc(C)nnc12 (stereo unspecified)
IC50 [1]: 0.78 nM
EC50 [2]: 2.3 nM
CC50 at 72 h [3]: > 5000 nM
microsomal CLint at 1 µM [4]: 117 µL/min/mg

COc1cc(C(=O)NCC2(c3cc(C(C)(C)O)c(F)c(-c4ccc(F)cc4)n3)CCCO2)cc2cc(C)nnc12 (stereo unspecified)
IC50 [1]: 0.8 nM
EC50 [2]: 0.73 nM
CC50 at 72 h [3]: 18000 nM
microsomal CLint at 1 µM [4]: > 20 µL/min/mg

COc1cc(-c2cn(C[C@](O)(c3cc(C(C)(C)O)c(F)c(-c4ccc(F)cc4)n3)C(F)(F)F)nn2)cc2cccnc12
IC50 [1]: 16 nM
EC50 [2]: 74 nM
CC50 at 72 h [3]: 13000 nM
microsomal CLint at 1 µM [4]: < 7.7 µL/min/mg
microsomal CLint at 1 µM [5]: < 7.7 µL/min/mg

COc1cc(C(=O)NCC(=O)c2cc(C(C)(C)O)c(F)c(-c3ccc(F)cc3)n2)cc2cc(C)nnc12
IC50 [1]: 3.4 nM
EC50 [2]: 6.5 nM
CC50 at 72 h [3]: 31000 nM
microsomal CLint at 1 µM [4]: 9.5 µL/min/mg

COc1cc(C(=O)NCC2(c3cc(C(C)(C)O)c(F)c(-c4ccc(F)cc4)n3)CC(=O)CO2)cc2cc(C)nnc12 (stereo unspecified)
IC50 [1]: 2.5 nM
EC50 [2]: 18 nM
CC50 at 72 h [3]: > 5000 nM
microsomal CLint at 1 µM [4]: 126 µL/min/mg

COc1cc(C(=O)NCC2(c3cc(C(C)(C)O)c(F)c(-c4ccc(F)cc4)n3)OCCC23CC3)cc2cc(C)nnc12 (stereo unspecified)
IC50 [1]: 0.55 nM
EC50 [2]: 0.41 nM
CC50 at 72 h [3]: > 5000 nM
microsomal CLint at 1 µM [4]: > 347 µL/min/mg

COc1cc(C(=O)NCC2(c3cc(C(C)(C)O)c(F)c(-c4ccc(F)cc4)n3)OCCC2O)cc2cc(C)nnc12 (stereo unspecified)
IC50 [1]: 1.9 nM
EC50 [2]: 0.13 nM
CC50 at 72 h [3]: > 5000 nM
microsomal CLint at 1 µM [4]: 18.4 µL/min/mg

COc1cc(C(=O)NCC(O)(c2cc(C(C)(C)O)c(F)c(-c3ccc(F)cc3)n2)C(F)(F)F)cc2cccnc12 (stereo unspecified)
IC50 [1]: 0.63 nM
EC50 [2]: 11 nM
CC50 at 72 h [3]: 16000 nM
microsomal CLint at 1 µM [4]: 12.1 µL/min/mg
microsomal CLint at 1 µM [5]: 168 µL/min/mg

COc1cc(C(=O)NCC2(c3cc(C(C)(C)O)c(F)c(-c4ccc(F)cc4)n3)CCCCO2)cc2cc(C)nnc12 (stereo unspecified)
IC50 [1]: 44 nM
EC50 [2]: 170 nM
CC50 at 72 h [3]: > 25000 nM
microsomal CLint at 1 µM [4]: > 347 µL/min/mg

COc1cc(-c2cn(CC3(c4cc(C(C)(C)O)c(F)c(-c5ccc(F)cc5)n4)CCCO3)nn2)cc2cccnc12 (stereo unspecified)
IC50 [1]: 22 nM
EC50 [2]: 108 nM
CC50 at 72 h [3]: > 5000 nM
microsomal CLint at 1 µM [4]: > 347 µL/min/mg

COc1cc(C(=O)NCC2(c3cc(C(C)(C)O)c(F)c(-c4ccc(F)cc4)n3)OCCO2)cc2cc(C)nnc12
IC50 [1]: 0.25 nM
EC50 [2]: 1.2 nM
CC50 at 72 h [3]: > 50000 nM
microsomal CLint at 1 µM [4]: 13.3 µL/min/mg

COc1cc(C(=O)NC[C@](O)(c2cc(C(C)(C)O)c(F)c(-c3ccc(F)cc3)n2)C(F)(F)F)cc2cc(C)nnc12
IC50 [6]: 0.29 nM
EC50 [7]: 0.38 nM

COc1cc(-c2cn(CC(=O)c3cc(C(C)(C)O)c(F)c(-c4ccc(F)cc4)n3)nn2)cc2cccnc12
IC50 [1]: 77 nM
EC50 [2]: 200 nM
CC50 at 72 h [3]: > 50000 nM
microsomal CLint at 1 µM [4]: 14.3 µL/min/mg
microsomal CLint at 1 µM [5]: 10.8 µL/min/mg

COc1cc(C(=O)NCC2(c3cc(C(C)(C)O)c(F)c(-c4ccc(F)cc4)n3)OCCC2=O)cc2cc(C)nnc12 (stereo unspecified)
IC50 [1]: 0.1 nM
EC50 [2]: 0.22 nM
CC50 at 72 h [3]: > 5000 nM
microsomal CLint at 1 µM [4]: 110 µL/min/mg

COc1cc(C(=O)NCC2(c3cc(C(C)(C)O)c(F)c(-c4ccc(F)cc4)n3)CC(O)CO2)cc2cc(C)nnc12 (stereo unspecified)
IC50 [1]: 1.9 nM
EC50 [2]: 17 nM
CC50 at 72 h [3]: > 5000 nM
microsomal CLint at 1 µM [4]: 14.6 µL/min/mg
